In the supplement of paper PMC10307832:

Key:
Experiment in all cases: relative viability (nuclei count vs DMSO), 5 days (fraction); higher = more cells survive
[1] = compound: O=C(CCCCCCC(=O)Nc1ccccc1)NO [Vorinostat] + CC(=O)c1c(C)c2cnc(Nc3ccc(N4CCNCC4)cn3)nc2n(C2CCCC2)c1=O [Palbociclib] (partner 0.5 µM)
In short: (§1)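 Lung cancer cell lines in 1536-well plates were dosed by pin tool the day after seeding, either with one drug alone or with a fixed anchor-drug dose plus five library-drug doses (not always all listed) in √10 steps. After 5 days, cells were fixed and their nuclei stained in one step (final 0.05% Triton X-100, 1% formaldehyde, 1 ug/ml Hoechst), then counted on 4× images. Relative viability is the nuclei count in treated wells divided by that in vehicle wells. Values are medians of duplicate plates.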

[2] = compound: O=C(CCCCCCC(=O)Nc1ccccc1)NO [Vorinostat] + N=C(N)NC(=N)NCCc1ccccc1 [Phenformin] (partner 250 µM)
In short: as §1

[3] = compound: O=C(CCCCCCC(=O)Nc1ccccc1)NO [Vorinostat] + CS(=O)(=O)N1CCN(Cc2cc3nc(-c4cccc5[nH]ncc45)nc(N4CCOCC4)c3s2)CC1 [Pictilisib] (partner 1 µM)
In short: as §1

[4] = compound: O=C(CCCCCCC(=O)Nc1ccccc1)NO [Vorinostat] + CCNC(=O)c1noc(-c2cc(C(C)C)c(O)cc2O)c1-c1ccc(CN2CCOCC2)cc1 [Luminespib] (partner 0.01 µM)
In short: as §1

[5] = compound: O=C(CCCCCCC(=O)Nc1ccccc1)NO [Vorinostat] + O=C(c1cc(Cc2n[nH]c(=O)c3ccccc23)ccc1F)N1CCN(C(=O)C2CC2)CC1 [Olaparib] (partner 8 µM)
In short: as §1

Cell Line	relative viability ([1]; first compound 0.253 µM)	relative viability ([1]; first compound 0.8 µM)	relative viability ([1]; first compound 2.53 µM)	relative viability ([1]; first compound 8 µM)	relative viability ([2]; first compound 0.253 µM)	relative viability ([2]; first compound 0.8 µM)	relative viability ([2]; first compound 2.53 µM)	relative viability ([2]; first compound 8 µM)	relative viability ([3]; first compound 0.253 µM)	relative viability ([3]; first compound 0.8 µM)	relative viability ([3]; first compound 2.53 µM)	relative viability ([3]; first compound 8 µM)	relative viability ([4]; first compound 0.253 µM)	relative viability ([4]; first compound 0.8 µM)	relative viability ([4]; first compound 2.53 µM)	relative viability ([4]; first compound 8 µM)	relative viability ([5]; first compound 0.253 µM)	relative viability ([5]; first compound 0.8 µM)	relative viability ([5]; first compound 2.53 µM)	relative viability ([5]; first compound 8 µM)
NCI-H1355	0.411	0.356	0.214	0.138	0.471	0.411	0.333	0.179	0.556	0.329	0.244	0.165	0.894	0.681	0.383	0.184	0.797	0.565	0.211	0.128
NCI-H661	0.437	0.377	0.286	0.32	0.38	0.3	0.213	0.268	0.557	0.696	0.462	0.214	0.905	0.725	0.34	0.298	0.767	0.569	0.392	0.323
NCI-H358	0.139	0.167	0.101	0.0793	0.5	0.47	0.115	0.082	0.372	0.468	0.17	0.172	0.429	0.521	0.308	0.126	0.722	0.609	0.227	0.0636
NCI-H1793	0.283	0.279	0.213	0.159	0.467	0.415	0.516	0.279	0.479	0.355	0.286	0.174	0.206	0.187	0.159	0.146	1.16	0.937	0.358	0.111
EPLC-272H	0.289	0.294	0.217	0.171	0.321	0.332	0.104	0.084	0.309	0.227	0.212	0.145	0.497	0.195	0.273	0.158	0.827	0.565	0.2	0.13
NCI-H1792	0.725	0.57	0.485	0.175	0.269	0.228	0.0757	0.0593	0.283	0.179	0.0803	0.0579	0.533	0.388	0.295	0.144	0.235	0.218	0.0385	0.0192
NCI-H1395	0.714	0.688	0.537	0.309	0.475	0.501	0.401	0.341	0.637	0.619	0.427	0.362	0.912	0.829	0.643	0.346	0.513	0.465	0.436	0.318
NCI-H2087	0.277	0.107	0.0624	0.0734	0.449	0.331	0.0993	0.0935	1.32	0.634	0.275	0.133	0.226	0.148	0.157	0.127	0.717	0.52	0.13	0.069
PC-14	0.56	0.351	0.0802	0.0377	0.713	0.561	0.131	0.0278	0.959	0.438	0.0673	0.0418	0.128	0.143	0.113	0.133	0.351	0.197	0.064	0.0386
LXF-289	0.65	0.599	0.476	0.0862	0.595	0.558	0.306	0.0606	0.913	0.704	0.272	0.088	0.763	0.596	0.299	0.0958	1.11	1.02	0.148	0.0576
NCI-H23	0.696	0.622	0.154	0.137	0.844	0.881	0.674	0.101	0.599	0.391	0.181	0.161	0.197	0.25	0.191	0.164	0.317	0.239	0.0822	0.084
NCI-H322M	0.487	0.445	0.418	0.356	0.94	0.761	0.452	0.284	0.537	0.541	0.386	0.317	1.25	1.11	0.731	0.28	0.9	0.873	0.498	0.386
NCI-H1651	0.545	0.494	0.154	0.0594	0.408	0.326	0.0932	0.0635	0.659	0.433	0.0763	0.0536	0.831	0.799	0.429	0.116	0.187	0.17	0.098	0.0473
NCI-H1755	0.431	0.463	0.3	0.209	0.646	0.579	0.413	0.204	0.47	0.368	0.173	0.138	0.442	0.661	0.572	0.166	0.953	0.86	0.307	0.205
LCLC-103H	0.494	0.424	0.368	0.302	0.322	0.332	0.267	0.151	0.794	0.55	0.306	0.211	0.987	0.939	0.185	0.145	0.844	0.737	0.413	0.247
LU99A	0.389	0.375	0.272	0.104	0.952	0.609	0.447	0.185	0.264	0.278	0.154	0.141	0.291	0.26	0.141	0.121	0.232	0.177	0.104	0.101

Cell Line	relative viability ([1]; first compound 0.253 µM)	relative viability ([1]; first compound 0.8 µM)	relative viability ([1]; first compound 2.53 µM)	relative viability ([1]; first compound 8 µM)	relative viability ([2]; first compound 0.253 µM)	relative viability ([2]; first compound 0.8 µM)	relative viability ([2]; first compound 2.53 µM)	relative viability ([2]; first compound 8 µM)	relative viability ([3]; first compound 0.253 µM)	relative viability ([3]; first compound 0.8 µM)	relative viability ([3]; first compound 2.53 µM)	relative viability ([3]; first compound 8 µM)	relative viability ([4]; first compound 0.253 µM)	relative viability ([4]; first compound 0.8 µM)	relative viability ([4]; first compound 2.53 µM)	relative viability ([4]; first compound 8 µM)	relative viability ([5]; first compound 0.253 µM)	relative viability ([5]; first compound 0.8 µM)	relative viability ([5]; first compound 2.53 µM)	relative viability ([5]; first compound 8 µM)
NCI-H1975	0.569	0.461	0.164	0.104	0.431	0.381	0.197	0.127	0.321	0.242	0.0978	0.118	0.286	0.202	0.147	0.16	0.9	0.593	0.249	0.125
LOU-NH91	0.533	0.515	0.512	0.384	0.774	0.663	0.628	0.348	0.556	0.472	0.417	0.32	0.376	0.417	0.329	0.283	0.959	0.832	0.587	0.404
HOP-62	0.492	0.409	0.177	0.0765	0.815	0.592	0.319	0.114	0.966	0.205	0.203	0.079	0.942	0.904	0.396	0.103	0.468	0.35	0.16	0.0785
LC-2-ad	0.566	0.455	0.331	0.186	0.568	0.461	0.221	0.133	0.568	0.292	0.0981	0.0042	1.11	0.918	0.367	0.208	0.706	0.541	0.267	0.19
NCI-H650	0.338	0.319	0.159	0.118	0.483	0.375	0.256	0.14	0.902	0.491	0.183	0.16	0.773	0.808	0.201	0.155	0.375	0.275	0.121	0.129
NCI-H520	0.351	0.31	0.19	0.133	0.717	0.482	0.374	0.164	0.369	0.213	0.21	0.146	0.209	0.213	0.212	0.195	0.299	0.264	0.184	0.116
NCI-H2126	0.396	0.367	0.314	0.194	0.525	0.495	0.244	0.177	0.495	0.42	0.334	0.221	0.832	0.977	0.403	0.175	0.885	0.905	0.391	0.196
NCI-H2170	0.407	0.345	0.253	0.102	0.481	0.394	0.384	0.164	0.348	0.235	0.209	0.185	0.894	0.692	0.577	0.171	0.632	0.554	0.146	0.0982
ChaGo-K-1	0.943	0.874	0.529	0.182	0.551	0.538	0.45	0.183	0.832	0.597	0.345	0.246	0.82	0.804	0.417	0.165	0.46	0.34	0.219	0.141
NCI-H1437	0.303	0.265	0.172	0.124	0.302	0.246	0.168	0.178	0.466	0.167	0.107	0.088	1.14	1.07	0.712	0.187	0.625	0.466	0.199	0.16
PC-3 [JPC-3]	0.521	0.506	0.45	0.378	0.471	0.465	0.436	0.279	0.779	0.582	0.423	0.309	0.746	0.801	0.282	0.261	1.13	1.05	0.379	0.326
NCI-H1944	0.31	0.272	0.176	0.118	0.203	0.19	0.146	0.123	0.338	0.308	0.27	0.18	0.716	0.573	0.304	0.147	0.367	0.33	0.166	0.114
NCI-H1915	0.563	0.436	0.167	0.0832	0.38	0.341	0.181	0.0949	1.17	0.751	0.426	0.0969	0.792	0.761	0.18	0.0892	0.231	0.175	0.113	0.0841
BEN	0.433	0.455	0.301	0.155	0.297	0.215	0.146	0.0911	0.659	0.332	0.132	0.0393	0.454	0.176	0.223	0.0986	1.15	0.791	0.281	0.1
NCI-H2085	0.464	0.419	0.302	0.172	0.781	0.532	0.46	0.223	0.53	0.462	0.378	0.303	0.447	0.411	0.317	0.19	0.803	0.79	0.442	0.219
CAL-12T	0.61	0.386	0.182	0.0984	0.685	0.562	0.312	0.0876	0.48	0.435	0.209	0.149	0.555	0.464	0.383	0.134	0.82	0.824	0.532	0.138
